Experimental data published in US11878975B2, “Substituted indole compounds useful as TLR inhibitors” (BRISTOL-MYERS SQUIBB COMPANY, priority 2017, dated 2024).

What was measured:
Type in all cases: cell-based
[1] = target: T1, human TLR8 (Homo sapiens, UniProt Q9NR97); assay: TLR8 inhibition reporter assay (HEK-Blue cells, SEAP reporter, R848 stimulation); details: HEK-Blue cells overexpressing human TLR8, SEAP reporter, R848 15.9 μM
T1 construct: host or cells: HEK-Blue cells
T1 sequence (Q9NR97 27-1041): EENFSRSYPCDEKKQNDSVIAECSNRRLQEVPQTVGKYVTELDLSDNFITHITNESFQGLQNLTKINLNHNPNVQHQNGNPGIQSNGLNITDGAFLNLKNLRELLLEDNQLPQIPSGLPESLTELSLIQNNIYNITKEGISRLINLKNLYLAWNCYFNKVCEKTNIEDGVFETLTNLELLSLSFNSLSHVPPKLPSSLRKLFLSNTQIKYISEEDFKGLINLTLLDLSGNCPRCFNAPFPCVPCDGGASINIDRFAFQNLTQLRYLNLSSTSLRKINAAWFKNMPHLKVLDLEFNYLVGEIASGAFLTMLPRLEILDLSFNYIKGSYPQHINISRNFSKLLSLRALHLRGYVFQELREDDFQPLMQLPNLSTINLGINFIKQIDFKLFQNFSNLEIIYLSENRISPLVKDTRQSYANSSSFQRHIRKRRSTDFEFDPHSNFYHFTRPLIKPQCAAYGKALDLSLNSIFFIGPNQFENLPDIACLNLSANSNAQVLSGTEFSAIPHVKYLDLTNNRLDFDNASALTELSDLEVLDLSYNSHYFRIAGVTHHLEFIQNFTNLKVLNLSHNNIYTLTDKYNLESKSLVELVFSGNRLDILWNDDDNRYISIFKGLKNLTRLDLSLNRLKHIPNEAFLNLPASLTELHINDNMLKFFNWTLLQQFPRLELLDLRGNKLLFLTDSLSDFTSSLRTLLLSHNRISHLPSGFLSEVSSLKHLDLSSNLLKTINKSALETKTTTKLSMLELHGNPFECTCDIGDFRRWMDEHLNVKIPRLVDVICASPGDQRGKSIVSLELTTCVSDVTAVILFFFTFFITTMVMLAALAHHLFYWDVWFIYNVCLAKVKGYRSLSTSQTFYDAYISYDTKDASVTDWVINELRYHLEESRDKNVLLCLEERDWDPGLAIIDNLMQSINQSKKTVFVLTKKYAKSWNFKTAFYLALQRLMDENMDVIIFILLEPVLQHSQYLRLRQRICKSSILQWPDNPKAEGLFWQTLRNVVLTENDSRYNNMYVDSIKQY
Outline: (§1)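 HEK-Blue cells with NF-κB/AP-1-driven SEAP reporter, pre-treated 30 min at room temperature with compound (0.05 nM-50 μM). Stimulants: gardiquimod 7.5 μM (TLR7), R848 15.9 μM (TLR8) or ODN2006 5 nM (TLR9). SEAP measured after 22 h at 37° C.; percent inhibition versus agonist-plus-DMSO and known-inhibitor wells.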

[2] = target: T2, human TLR9 (Homo sapiens, UniProt Q9NR96); assay: TLR9 inhibition reporter assay (HEK-Blue cells, SEAP reporter, ODN2006 stimulation); details: HEK-Blue cells overexpressing human TLR9, SEAP reporter, ODN2006 5 nM
T2 construct: host or cells: HEK-Blue cells
T2 sequence (Q9NR96 26-1032): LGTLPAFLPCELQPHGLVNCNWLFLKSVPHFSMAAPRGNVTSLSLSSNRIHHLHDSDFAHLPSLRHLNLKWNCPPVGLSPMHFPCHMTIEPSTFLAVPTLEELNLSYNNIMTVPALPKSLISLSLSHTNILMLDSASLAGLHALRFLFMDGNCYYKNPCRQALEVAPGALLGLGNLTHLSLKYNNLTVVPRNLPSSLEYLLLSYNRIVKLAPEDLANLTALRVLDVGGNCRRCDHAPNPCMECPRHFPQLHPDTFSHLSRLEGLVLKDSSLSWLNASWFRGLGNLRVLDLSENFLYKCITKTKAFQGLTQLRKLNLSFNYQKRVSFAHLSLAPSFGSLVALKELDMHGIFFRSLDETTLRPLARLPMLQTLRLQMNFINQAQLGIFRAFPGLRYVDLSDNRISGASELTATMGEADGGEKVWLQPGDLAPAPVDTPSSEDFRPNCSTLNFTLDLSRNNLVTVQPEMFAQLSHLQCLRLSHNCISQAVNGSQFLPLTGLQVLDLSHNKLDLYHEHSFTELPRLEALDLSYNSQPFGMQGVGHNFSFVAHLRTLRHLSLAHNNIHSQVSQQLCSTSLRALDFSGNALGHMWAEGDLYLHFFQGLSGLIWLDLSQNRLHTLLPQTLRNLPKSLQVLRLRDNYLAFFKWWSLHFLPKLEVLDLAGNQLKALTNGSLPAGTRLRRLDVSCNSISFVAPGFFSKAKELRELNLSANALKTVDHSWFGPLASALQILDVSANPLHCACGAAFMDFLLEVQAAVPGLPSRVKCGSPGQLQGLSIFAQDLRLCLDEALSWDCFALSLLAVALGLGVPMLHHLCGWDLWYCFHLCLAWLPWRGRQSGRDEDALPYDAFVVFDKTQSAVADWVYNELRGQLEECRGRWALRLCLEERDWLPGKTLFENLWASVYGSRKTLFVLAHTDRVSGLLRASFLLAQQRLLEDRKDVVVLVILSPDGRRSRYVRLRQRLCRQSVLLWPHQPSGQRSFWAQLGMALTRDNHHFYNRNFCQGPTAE
Outline: as §1

[3] = target: T3, human TLR7 (Homo sapiens, UniProt Q9NYK1); assay: TLR7 inhibition reporter assay (HEK-Blue cells, SEAP reporter, gardiquimod stimulation); details: HEK-Blue cells overexpressing human TLR7, SEAP reporter, gardiquimod 7.5 μM
T3 construct: host or cells: HEK-Blue cells
T3 sequence (Q9NYK1 27-1049): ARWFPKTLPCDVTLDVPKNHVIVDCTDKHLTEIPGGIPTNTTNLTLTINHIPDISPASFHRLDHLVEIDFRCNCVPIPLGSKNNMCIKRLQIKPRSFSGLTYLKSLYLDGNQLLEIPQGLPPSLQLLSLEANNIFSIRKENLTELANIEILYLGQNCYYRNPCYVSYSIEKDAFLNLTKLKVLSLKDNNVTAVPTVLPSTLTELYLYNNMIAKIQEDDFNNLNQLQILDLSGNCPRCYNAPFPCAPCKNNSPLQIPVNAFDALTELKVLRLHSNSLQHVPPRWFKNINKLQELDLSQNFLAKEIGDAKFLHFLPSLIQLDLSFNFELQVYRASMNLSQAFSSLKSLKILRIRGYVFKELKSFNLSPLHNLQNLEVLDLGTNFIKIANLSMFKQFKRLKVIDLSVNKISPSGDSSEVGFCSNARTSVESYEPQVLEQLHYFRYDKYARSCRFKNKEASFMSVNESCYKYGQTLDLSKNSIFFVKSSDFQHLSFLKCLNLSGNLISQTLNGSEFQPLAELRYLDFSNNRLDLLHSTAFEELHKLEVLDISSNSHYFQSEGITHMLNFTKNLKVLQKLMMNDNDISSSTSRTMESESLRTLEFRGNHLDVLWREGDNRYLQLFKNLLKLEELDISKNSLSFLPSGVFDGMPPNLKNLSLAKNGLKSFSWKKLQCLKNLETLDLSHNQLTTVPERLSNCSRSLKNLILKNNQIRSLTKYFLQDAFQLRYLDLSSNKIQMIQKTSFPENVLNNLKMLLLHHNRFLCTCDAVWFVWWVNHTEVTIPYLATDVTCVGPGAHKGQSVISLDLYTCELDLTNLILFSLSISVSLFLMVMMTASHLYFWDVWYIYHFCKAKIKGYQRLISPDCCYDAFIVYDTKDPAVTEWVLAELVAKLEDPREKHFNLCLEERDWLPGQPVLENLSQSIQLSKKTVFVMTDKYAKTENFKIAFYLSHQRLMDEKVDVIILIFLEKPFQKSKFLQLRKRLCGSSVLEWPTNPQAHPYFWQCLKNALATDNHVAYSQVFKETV
Outline: as §1

Row | IC50 [1] | IC50 [2] | IC50 [3] | SMILES
1 | 9.3 nM | 883 nM | 18 nM | Cc1cc(-c2[nH]c3ccc(CCN4CCOCC4)cc3c2C(C)C)cc(C)n1 [Example 393, 2-(2,6-dimethylpyridin-4-yl)-5-[2-(morpholin-4-yl)ethyl]-3-(propan-2-yl)-1H-indole]
2 | 4.4 nM | 1170 nM | 0.85 nM | CCN(C)C1CCC(c2ccc3[nH]c(-c4cc(OC)c5ncnn5c4)c(C(C)C)c3c2)CC1 (single isomer, unassigned) [Example 66]
3 | 50 nM | 4410 nM | 7 nM | CNC1CCC(c2ccc3[nH]c(-c4cn5cnnc5c(C)c4C)c(C(C)C)c3c2)CC1 (stereo not drawn) [Example 525]
4 | 7.4 nM | 7490 nM | 1 nM | COc1cc(-c2[nH]c3ccc(CC4CN(C(=O)CN(C)C)C4)cc3c2C(C)C)cn2ncnc12 [Example 434]
5 | 13 nM | 11200 nM | 2 nM | Cc1cc(-c2[nH]c3ccc(CC4CCCN4CC(=O)N(C)C)cc3c2C(C)C)cn2ncnc12 (stereo not drawn) [Example 426]
6 | 12 nM | 5680 nM | 4 nM | COc1cc(-c2[nH]c3ccc(C4CCC(C)(NC(=O)CN(C)C)CC4)cc3c2C(C)C)cn2ncnc12 (stereo not drawn) [Example 154, 2-(dimethylamino)-N-(4-(3-isopropyl-2-(8-methoxy-[1,2,4]triazolo[1,5-a]pyridin-6-yl)-1H-indol-5-yl)-1-methylcyclohexyl)acetamide]
7 | 6 nM | 863 nM | 1 nM | CNCC(=O)N1CCOC(c2ccc3[nH]c(-c4cc(OC)c5ncnn5c4)c(C(C)C)c3c2)C1 (stereo not drawn) [Example 339]
8 | 66 nM | 191 nM | 77 nM | Cc1cc(-c2[nH]c3ccc([C@H]4C[C@H]4C(=O)NC4CCC5CNCC54)cc3c2C(C)C)ccn1 (stereo partly drawn) [Example 453]
9 | 3.9 nM | 1200 nM | 0.85 nM | COc1cc(-c2[nH]c3ccc(C4CCC(N5CC(O)C5)CC4)cc3c2C(C)C)cn2ncnc12 (single isomer, unassigned) [Example 22]
10 | 3.5 nM | 2780 nM | 2 nM | COc1cc(-c2[nH]c3ccc(CC4CN(CCS(C)(=O)=O)C4)cc3c2C(C)C)cn2ncnc12 [Example 431]
11 | 36 nM | > 50000 nM | 6 nM | Cc1cc(-c2[nH]c3ccc(C4CN(C(=O)CN(C)C)C(C)(C)CO4)cc3c2C(C)C)cn2ncnc12 (single isomer, unassigned) [Example 373, 2-(dimethylamino)-1-(2-(3-isopropyl-2-(8-methyl-[1,2,4]triazolo[1,5-a]pyridin-6-yl)-1H-indol-5-yl)-5,5-dimethylmorpholino)ethanone]
12 | 8.2 nM | 5490 nM | 0.85 nM | Cc1cc(-c2[nH]c3ccc(C4CN(C(=O)CN(C)C)CCO4)cc3c2C(C)C)cn2ncnc12 (stereo not drawn) [Example 328, 2-(dimethylamino)-1-(2-(3-isopropyl-2-(8-methyl-[1,2,4]triazolo[1,5-a]pyridin-6-yl)-1H-indol-5-yl)morpholino)ethanone]
13 | 2.4 nM | 8700 nM | 0.24 nM | COc1cc(-c2[nH]c3ccc(C4CCC(NC(=O)CN(C)C)CC4)cc3c2C(C)C)cn2ncnc12 (stereo not drawn) [Example 122]
14 | 180 nM | > 50000 nM | 49 nM | Cc1c(-c2[nH]c3ccc(C4CCC(N5CC(F)(F)C5)CC4)cc3c2C(C)C)cn2ncnc2c1C (stereo not drawn) [Example 25]
15 | 23 nM | 313 nM | 71 nM | CC(C)c1c(-c2ccnc3[nH]ncc23)[nH]c2ccc(C3CCC(OC4CCNCC4)CC3)cc12 (stereo not drawn) [Example 502]
16 | 396 nM | 37000 nM | 24 nM | COc1cc(-c2[nH]c3ccc(C4CCC(NCC(F)(F)F)CC4)cc3c2C(C)C)cn2ncnc12 (single isomer, unassigned) [Example 110]
17 | 13 nM | 7500 nM | 2 nM | CNC(=O)CN1CCCC(c2ccc3[nH]c(-c4cc(OC)c5ncnn5c4)c(C(C)C)c3c2)C1 (stereo not drawn) [Example 223]
18 | 8.5 nM | 519 nM | 9 nM | CN[C@@H](C)C(=O)N1CCCC(c2ccc3[nH]c(-c4cc(C)nc(C)c4)c(C(C)C)c3c2)C1 (stereo partly drawn) [Example 219]
19 | 39 nM | > 50000 nM | 8 nM | Cc1cc(-c2[nH]c3ccc(C4CN(CC(=O)N(C)C)CCO4)cc3c2C(C)C)cn2ncnc12 (stereo not drawn) [Example 306, 2-(2-(3-isopropyl-2-(8-methyl-[1,2,4]triazolo[1,5-a]pyridin-6-yl)-1H-indol-5-yl)morpholino)-N,N-dimethylacetamide]
20 | 1.8 nM | 1880 nM | 0.36 nM | Cc1cc(-c2[nH]c3ccc(C4CCC(N(C)C5CC5)CC4)cc3c2C(C)C)cn2ncnc12 (single isomer, unassigned) [Example 9]
21 | 6.9 nM | 116 nM | 8 nM | Cc1cc(-c2[nH]c3ccc(C4CCCN(Cc5c[nH]c(C)n5)C4)cc3c2C(C)C)cc(C)n1 (stereo not drawn) [Example 247]
